The values below come from the OligoGym collection.

HELM strings list units from the 5' end as sugar, base in round brackets, then linkage (d deoxyribose, r ribose, m 2'-O-methyl, p phosphodiester). Strings are as the collection lists them; they lack the last nucleoside at the 3' end of the tested compound. [moe] = 2'-O-(2-methoxyethyl) (MOE); [sp] = phosphorothioate linkage; [m5C] = 5-methylcytosine

For the data set, the target named is SCN2A. Put plainly: mouse, dose not given. Conditions: ASO.
For “RNA1{[moe](G)[sp].[moe](A)p.[moe]([m5C])p.[moe]([m5C])p.d(G)[sp].d(T)[sp].d([m5C])[sp].d(T)[sp].d([m5C])[sp].d(T)[sp].d(T)[sp].d(T)[sp].d([m5C])[sp].d(T)[sp].[moe](T)p.[moe](A)p.[moe](T)p.[moe](T)[sp].[moe](T)}$$$$ (last 3' nucleoside missing)”, the 3 h FOB score came out at 0 score 0-7.
The same measure for “RNA1{[moe](G)[sp].[moe](A)p.[moe]([m5C])p.[moe](A)p.[moe](T)p.d(A)[sp].d(T)[sp].d(T)[sp].d(T)[sp].d(T)[sp].d(T)[sp].d([m5C])[sp].d(T)[sp].d(A)[sp].d([m5C])[sp].[moe](A)p.[moe]([m5C])p.[moe](T)[sp].[moe](G)}$$$$ (last 3' nucleoside missing)”: 1.67 score 0-7; for “RNA1{[moe](T)[sp].[moe](G)p.[moe]([m5C])p.[moe](A)p.[moe](T)p.[moe](A)p.d(A)[sp].d(T)[sp].d([m5C])[sp].d([m5C])[sp].d([m5C])[sp].d(A)[sp].d(T)[sp].d(T)[sp].d(A)[sp].d(T)[sp].[moe](A)p.[moe]([m5C])[sp].[moe](A)}$$$$ (last 3' nucleoside missing)”: 0 score 0-7.
In the case of “RNA1{[moe]([m5C])[sp].[moe](A)p.[moe]([m5C])p.[moe](G)p.d([m5C])[sp].d(T)[sp].d(T)[sp].d(A)[sp].d([m5C])[sp].d(A)[sp].d(T)[sp].d([m5C])[sp].d(A)[sp].d(A)[sp].[moe](A)p.[moe]([m5C])p.[moe](A)p.[moe](T)[sp].[moe]([m5C])}$$$$ (last 3' nucleoside missing)”, the 3 h FOB score is 0 score 0-7.
On to “RNA1{[moe](A)[sp].[moe](T)p.[moe](A)p.[moe](T)p.[moe](T)p.d(T)[sp].d(T)[sp].d(T)[sp].d([m5C])[sp].d(T)[sp].d(A)[sp].d([m5C])[sp].d(A)[sp].d([m5C])[sp].d(T)[sp].[moe](G)p.[moe]([m5C])p.[moe](T)[sp].[moe](G)}$$$$ (last 3' nucleoside missing)”, for which the 3 h FOB score turned out to be 1 score 0-7.
With “RNA1{[moe](T)[sp].[moe](T)p.[moe]([m5C])p.[moe](T)p.[moe](G)p.[moe]([m5C])p.d(A)[sp].d(T)[sp].d(G)[sp].d(T)[sp].d(A)[sp].d(A)[sp].d([m5C])[sp].d([m5C])[sp].d(T)[sp].d(T)[sp].[moe](T)p.[moe](A)[sp].[moe](T)}$$$$ (last 3' nucleoside missing)” the figure was 0 score 0-7.
Substance “RNA1{[moe]([m5C])[sp].[moe]([m5C])p.[moe](A)p.[moe]([m5C])p.d(G)[sp].d(A)[sp].d([m5C])[sp].d(A)[sp].d(T)[sp].d(A)[sp].d(T)[sp].d(T)[sp].d(T)[sp].d(T)[sp].[moe](T)p.[moe]([m5C])p.[moe](T)p.[moe](A)[sp].[moe]([m5C])}$$$$ (last 3' nucleoside missing)” had a 3 h FOB score of 1 score 0-7.
Substance “RNA1{[moe](G)[sp].[moe]([m5C])p.[moe](A)p.[moe](T)p.[moe](G)p.d(T)[sp].d(A)[sp].d(A)[sp].d([m5C])[sp].d([m5C])[sp].d(T)[sp].d(T)[sp].d(T)[sp].d(A)[sp].d(T)[sp].[moe](A)p.[moe]([m5C])p.[moe](A)[sp].[moe](T)}$$$$ (last 3' nucleoside missing)” had a 3 h FOB score of 0 score 0-7.
“RNA1{[moe]([m5C])[sp].[moe](T)p.[moe](G)p.[moe]([m5C])p.[moe](A)p.[moe](T)p.d(G)[sp].d(T)[sp].d(A)[sp].d(A)[sp].d([m5C])[sp].d([m5C])[sp].d(T)[sp].d(T)[sp].d(T)[sp].d(A)[sp].[moe](T)p.[moe](A)[sp].[moe]([m5C])}$$$$ (last 3' nucleoside missing)” had a 3 h FOB score of 0 score 0-7.
Take “RNA1{[moe]([m5C])[sp].[moe](A)p.[moe](T)p.[moe](A)p.d(A)[sp].d(T)[sp].d([m5C])[sp].d([m5C])[sp].d([m5C])[sp].d(A)[sp].d(T)[sp].d(T)[sp].d(A)[sp].d(T)[sp].[moe](A)p.[moe]([m5C])p.[moe](A)p.[moe](A)[sp].[moe](A)}$$$$ (last 3' nucleoside missing)”: the 3 h FOB score turned out to be 0 score 0-7.
Turning to “RNA1{[moe](G)[sp].[moe](G)p.[moe](A)p.[moe]([m5C])p.d([m5C])[sp].d(G)[sp].d(T)[sp].d([m5C])[sp].d(T)[sp].d([m5C])[sp].d(T)[sp].d(T)[sp].d(T)[sp].d([m5C])[sp].[moe](T)p.[moe](T)p.[moe](A)p.[moe](T)[sp].[moe](T)}$$$$ (last 3' nucleoside missing)”, the 3 h FOB score was determined as 1 score 0-7.
Take “RNA1{[moe](T)[sp].[moe](T)p.[moe]([m5C])p.[moe](T)p.[moe](A)p.[moe](T)p.d(T)[sp].d(T)[sp].d(T)[sp].d(A)[sp].d(T)[sp].d(A)[sp].d(A)[sp].d(A)[sp].d(T)[sp].d(G)[sp].[moe]([m5C])p.[moe]([m5C])[sp].[moe](G)}$$$$ (last 3' nucleoside missing)”: the 3 h FOB score worked out at 3 score 0-7.
On to “RNA1{[moe](G)[sp].[moe]([m5C])p.[moe](A)p.[moe](T)[sp].d(G)[sp].d(T)[sp].d(A)[sp].d(A)[sp].d([m5C])[sp].d([m5C])[sp].d(T)[sp].d(T)[sp].[moe](T)p.[moe](A)p.[moe](T)p.[moe](A)[sp].[moe]([m5C])}$$$$ (last 3' nucleoside missing)”, for which the 3 h FOB score was found to be 0 score 0-7.
The substance “RNA1{[moe](T)[sp].[moe](A)p.[moe](A)p.[moe](T)p.[moe]([m5C])p.d(A)[sp].d([m5C])[sp].d(T)[sp].d(T)[sp].d(T)[sp].d([m5C])[sp].d(A)[sp].d(T)[sp].d([m5C])[sp].d([m5C])[sp].[moe](A)p.[moe]([m5C])p.[moe](G)[sp].[moe](A)}$$$$ (last 3' nucleoside missing)” returned a 3 h FOB score of 0 score 0-7.
On to “RNA1{[moe](T)[sp].[moe](G)p.[moe](T)p.[moe](A)p.d(A)[sp].d([m5C])[sp].d([m5C])[sp].d(T)[sp].d(T)[sp].d(T)[sp].d(A)[sp].d(T)[sp].d(A)[sp].d([m5C])[sp].[moe](A)p.[moe](T)p.[moe](T)p.[moe](T)[sp].[moe](A)}$$$$ (last 3' nucleoside missing)”, for which the 3 h FOB score was 0 score 0-7.
As for “RNA1{[moe](T)[sp].[moe]([m5C])p.[moe](T)p.[moe](T)p.d(T)[sp].d([m5C])[sp].d(T)[sp].d(T)[sp].d(A)[sp].d(T)[sp].d(T)[sp].d(T)[sp].d([m5C])[sp].d(T)[sp].[moe](G)p.[moe](T)p.[moe](T)p.[moe](T)[sp].[moe]([m5C])}$$$$ (last 3' nucleoside missing)”, the 3 h FOB score came out at 0 score 0-7.
